Converted amounts (≈) assume the structure as drawn. “And” between values parts separate entries of the source, which are not always exact repeats. Equal values may be shown once.
How the values were obtained:
Assay in all cases: ≥ marks a high value that may be exact or a test limit, other limits are often not marked, values filed in µg/mL are converted to µM
[1] = test system: Escherichia coli ATCC 8739
[2] = test system: Pseudomonas aeruginosa ATCC 9027
[3] = test system: Staphylococcus aureus ATCC 6538
[4] = test system: Bacillus subtilis ATCC 6633
[5] = test system: Escherichia coli ATCC 25922
[6] = test system: Klebsiella pneumoniae ATCC 10031
[7] = test system: Micrococcus luteus ATCC 10240
[8] = test system: Pseudomonas aeruginosa ATCC 27853
[9] = test system: Salmonella enterica subsp. enterica serovar Typhimurium ATCC 14028
[10] = test system: Shigella dysenteriae ATCC 9752
[11] = test system: Staphylococcus aureus ATCC 6538P
[12] = test system: Staphylococcus epidermidis ATCC 12228
[13] = test system: Pseudomonas aeruginosa Ps4
[14] = test system: Bacillus anthracis Sterne 34F2
[15] = test system: Bacillus subtilis var. niger ATCC 9372
Escherichia coli K91BK = test system: Escherichia coli K91BK
Escherichia coli = test system: Escherichia coli
[16] = test system: Salmonella enterica subsp. enterica serovar Enteritidis
Salmonella sp. = test system: Salmonella sp.
[17] = test system: Staphylococcus aureus ATCC 29213
[18] = test system: Staphylococcus aureus ATCC 43300
Yersinia enterocolitica = test system: Yersinia enterocolitica
[19] = test system: Staphylococcus aureus ATCC 25923

NCCCC[C@H](NC(=O)[C@H](Cc1c[nH]c2ccccc12)NC(=O)[C@H](Cc1ccccc1)NC(=O)[C@H](Cc1c[nH]c2ccccc12)NC(=O)[C@@H](N)CS)C(=O)N[C@@H](Cc1c[nH]c2ccccc12)C(=O)N[C@@H](Cc1c[nH]c2ccccc12)C(=O)N[C@@H](CCCN=C(N)N)C(=O)N[C@@H](CCCN=C(N)N)C(=O)N[C@@H](CCCN=C(N)N)C(=O)N[C@@H](CCCN=C(N)N)C(=O)N[C@@H](CCCN=C(N)N)C(N)=O [CWFWKWWRRRRR]
MIC [1]: 5.2 µM and 7.3 µM
MIC [2]: 5.5 µM and 8.7 µM
MIC [3]: 2.5 µM and 4.7 µM

CC(C)C[C@H](NC(=O)[C@H](Cc1c[nH]c2ccccc12)NC(=O)[C@H](CCCCN)NC(=O)[C@H](CC(C)C)NC(=O)[C@@H](N)Cc1ccccc1)C(=O)N[C@@H](Cc1ccccc1)C(=O)N[C@@H](CCCCN)C(=O)N[C@@H](Cc1c[nH]c2ccccc12)C(=O)N[C@@H](C)C(=O)N[C@@H](CCCCN)C(=O)N[C@@H](CCCCN)C(N)=O [FLKWLFKWAKK]
MIC [4]: 2.07 µM (≈ 3.1 µg/mL)
MIC [5]: 8.36 µM (≈ 12.5 µg/mL)
MIC [6]: 8.36 µM (≈ 12.5 µg/mL)
MIC [7]: 2.07 µM (≈ 3.1 µg/mL)
MIC [8]: 8.36 µM (≈ 12.5 µg/mL)
MIC [9]: 33.4 µM (≈ 50 µg/mL)
MIC [10]: 16.7 µM (≈ 25 µg/mL)
MIC [11]: 4.21 µM (≈ 6.3 µg/mL)
MIC [12]: 4.21 µM (≈ 6.3 µg/mL)

CC[C@H](C)[C@H](NC(=O)[C@H](CC(N)=O)NC(=O)[C@H](CCCN=C(N)N)NC(=O)[C@H](CCC(N)=O)NC(=O)[C@H](Cc1c[nH]c2ccccc12)NC(=O)[C@@H](N)Cc1ccccc1)C(=O)N[C@@H](CCCN=C(N)N)C(=O)N[C@@H](Cc1ccccc1)C(=O)N[C@@H](CCCN=C(N)N)C(=O)N[C@@H](CCCN=C(N)N)C(N)=O [FWQRNIRFRR]
MIC [13]: ≥ 250 µM

CC[C@H](C)[C@H](NC(=O)[C@H](C)NC(=O)[C@H](CCCCN)NC(=O)[C@H](CCCN=C(N)N)NC(=O)CNC(=O)[C@H](Cc1ccccc1)NC(=O)[C@H](CCCCN)NC(=O)[C@H](CCCCN)NC(=O)[C@@H](NC(=O)[C@H](CC(C)C)NC(=O)[C@H](CCCCN)NC(=O)CNC(=O)[C@H](Cc1ccccc1)NC(=O)[C@H](CC(C)C)NC(=O)CNC(C)=O)[C@@H](C)CC)C(=O)N[C@@H](CO)C(=O)N[C@@H](Cc1ccc(O)cc1)C(=O)N[C@@H](C)C(=O)N[C@H](C(=O)N[C@@H](CCCCN)C(=O)N[C@@H](CCCCN)C(=O)N[C@@H](C)C(=O)N[C@@H](CCCN=C(N)N)C(=O)NCC(=O)N[C@@H](CCCCN)C(=O)N[C@@H](Cc1cnc[nH]1)C(N)=O)C(C)C [GLFGKLIKKFGRKAISYAVKKARGKH]
MIC [14]: 6.25 µM (≈ 18.4 µg/mL)
MIC [15]: 2.37 µM (≈ 6.98 µg/mL)
MIC (Escherichia coli K91BK): ≥ 100 µM

CC(C)C[C@H](NC(=O)[C@H](CC(C)C)NC(=O)[C@H](Cc1c[nH]c2ccccc12)NC(=O)[C@H](CCCCN)NC(=O)[C@H](CC(C)C)NC(=O)[C@H](CC(C)C)NC(=O)[C@@H](N)CCCCN)C(=O)N[C@@H](CCCCN)C(N)=O [KLLKWLLK]
MIC [4]: ≥ 48 µM
MIC [5]: 96 µM (≈ 99.9 µg/mL)
MIC [6]: ≥ 96 µM
MIC [7]: ≥ 96 µM
MIC [8]: 96 µM (≈ 99.9 µg/mL)
MIC [9]: > 192 µM
MIC [10]: ≥ 192 µM
MIC [11]: 24 µM (≈ 25 µg/mL)
MIC [12]: 192 µM (≈ 200 µg/mL)

CSCC[C@H](NC(=O)[C@H](CCCN=C(N)N)NC(=O)[C@H](CCCN=C(N)N)NC(=O)[C@@H](N)CC(N)=O)C(=O)N[C@@H](CCCCN)C(=O)N[C@@H](Cc1c[nH]c2ccccc12)C(=O)N[C@@H](CCCCN)C(=O)N[C@@H](CCCCN)C(N)=O [NRRMKWKK]
MIC [5]: > 50 µM
MIC (Escherichia coli): > 50 µM
MIC [8]: > 50 µM
MIC [16]: ≥ 50 µM
MIC (Salmonella sp.): ≥ 50 µM
MIC [17]: > 50 µM
MIC [18]: > 50 µM
MIC (Yersinia enterocolitica): ≥ 50 µM

CC[C@H](C)[C@H](NC(=O)[C@H](CCCCN)NC(=O)[C@H](CCCN=C(N)N)NC(=O)[C@H](CC(C)C)NC(=O)[C@@H](NC(=O)[C@H](CCCCN)NC(=O)CNC(=O)[C@H](CC(C)C)NC(=O)[C@@H](NC(=O)[C@H](CCCCN)NC(=O)[C@H](CC(N)=O)NC(=O)[C@H](CCCN=C(N)N)NC(=O)[C@H](C)NC(=O)[C@H](CCSC)NC(=O)[C@@H]1CCCN1)[C@@H](C)CC)[C@@H](C)CC)C(=O)N[C@@H](C)C(=O)N[C@@H](C)C(=O)N[C@@H](Cc1ccccc1)C(=O)N[C@@H](CCCCN)C(=O)O [PMARNKILGKILRKIAAFK]
MIC [1]: 3.69 µM (≈ 8 µg/mL)
MIC [19]: 29.5 µM (≈ 64 µg/mL)

CC[C@H](C)[C@H](NC(=O)[C@H](CCCN=C(N)N)NC(=O)[C@@H](NC(=O)[C@H](CC(N)=O)NC(=O)[C@H](CCCN=C(N)N)NC(=O)[C@H](CCC(N)=O)NC(=O)[C@H](Cc1c[nH]c2ccccc12)NC(=O)[C@H](Cc1ccccc1)NC(=O)[C@@H](N)CCCN=C(N)N)[C@@H](C)CC)C(=O)N[C@@H](CCCN=C(N)N)C(=O)N[C@@H](CCCN=C(N)N)C(N)=O [RFWQRNIRIRR]
MIC [13]: ≥ 156 µM

CC[C@H](C)[C@H](NC(=O)[C@H](CC(N)=O)NC(=O)[C@H](CCCN=C(N)N)NC(=O)[C@H](CCC(N)=O)NC(=O)[C@H](Cc1c[nH]c2ccccc12)NC(=O)[C@H](Cc1ccccc1)NC(=O)[C@@H](N)CCCN=C(N)N)C(=O)N[C@@H](CCCN=C(N)N)C(=O)N[C@@H](CCCCN)C(=O)N[C@@H](Cc1ccc(O)cc1)C(=O)N[C@@H](CCCN=C(N)N)C(N)=O [RFWQRNIRKYR]
MIC [13]: ≥ 154 µM

CC[C@H](C)[C@H](NC(=O)[C@H](CCC(N)=O)NC(=O)[C@@H](N)CCCN=C(N)N)C(=O)N[C@H](C(=O)N[C@@H](CCCN=C(N)N)C(=O)N[C@@H](CCCN=C(N)N)C(=O)N[C@@H](CCSC)C(=O)N[C@@H](Cc1c[nH]c2ccccc12)C(=O)N[C@@H](CCCN=C(N)N)C(N)=O)[C@@H](C)CC [RQIIRRMWR]
MIC [5]: > 38 µM
MIC (Escherichia coli): 19 µM (≈ 25 µg/mL)
MIC [16]: ≥ 38 µM
MIC (Salmonella sp.): ≥ 38 µM
MIC [17]: > 38 µM
MIC [18]: > 38 µM
MIC (Yersinia enterocolitica): ≥ 38 µM

CC[C@H](C)[C@H](NC(=O)[C@H](CCCCN)NC(=O)[C@@H](NC(=O)[C@H](CCC(N)=O)NC(=O)[C@@H](N)CCCN=C(N)N)[C@@H](C)CC)C(=O)N[C@@H](CCCN=C(N)N)C(=O)N[C@@H](CCCN=C(N)N)C(=O)N[C@@H](CCSC)C(=O)N[C@@H](CCCCN)C(=O)N[C@@H](Cc1c[nH]c2ccccc12)C(=O)N[C@@H](CCCN=C(N)N)C(N)=O [RQIKIRRMKWR]
MIC [5]: 7.96 µM (≈ 12.5 µg/mL)
MIC (Escherichia coli): 3.56 µM (≈ 5.59 µg/mL)
MIC [16]: 31.8 µM (≈ 50 µg/mL)
MIC (Salmonella sp.): 3.18 µM (≈ 5 µg/mL)
MIC [17]: > 31.8 µM
MIC [18]: 31.8 µM (≈ 50 µg/mL)
MIC (Yersinia enterocolitica): 3.98 µM (≈ 6.25 µg/mL)

CC[C@H](C)[C@H](NC(=O)[C@H](CCC(N)=O)NC(=O)[C@@H](N)CCCN=C(N)N)C(=O)N[C@@H](Cc1c[nH]c2ccccc12)C(=O)N[C@@H](Cc1c[nH]c2ccccc12)C(=O)N[C@@H](Cc1c[nH]c2ccccc12)C(=O)N[C@@H](Cc1c[nH]c2ccccc12)C(=O)N[C@@H](CCC(N)=O)C(=O)N[C@@H](CCCN=C(N)N)C(N)=O [RQIWWWWQR]
MIC [5]: 4.33 µM (≈ 6.25 µg/mL)
MIC (Escherichia coli): 4.33 µM (≈ 6.25 µg/mL)
MIC [16]: 8.65 µM (≈ 12.5 µg/mL)
MIC (Salmonella sp.): 4.33 µM (≈ 6.25 µg/mL)
MIC [17]: 34.6 µM (≈ 50 µg/mL)
MIC [18]: > 34.6 µM
MIC (Yersinia enterocolitica): 17.3 µM (≈ 25 µg/mL)

CC[C@H](C)[C@H](NC(=O)[C@H](CCCCN)NC(=O)[C@@H](NC(=O)[C@H](CCCN=C(N)N)NC(=O)[C@H](CCCN=C(N)N)NC(=O)[C@H](CCSC)NC(=O)[C@H](CCCCN)NC(=O)[C@H](Cc1c[nH]c2ccccc12)NC(=O)[C@@H](N)CCCN=C(N)N)[C@@H](C)CC)C(=O)N[C@@H](CCC(N)=O)C(=O)N[C@@H](CCCN=C(N)N)C(N)=O [RWKMRRIKIQR]
MIC [5]: > 31.8 µM
MIC (Escherichia coli): > 31.8 µM
MIC [16]: 31.8 µM (≈ 50 µg/mL)
MIC (Salmonella sp.): 31.8 µM (≈ 50 µg/mL)
MIC [17]: > 31.8 µM
MIC [18]: > 31.8 µM
MIC (Yersinia enterocolitica): 31.8 µM (≈ 50 µg/mL)

Source: DBAASP
